Results from patent publication US4705799A, “Aminomethyl oxooxazolidinyl benzenes useful as antibacterial agents” (E. I. Du Pont de Nemours and Company, priority 1985, dated 1987).
Converted amounts (≈) assume the structure as drawn.

Tests used:
[1] = system: Staphylococcus epidermidis; assay: In vitro broth dilution minimal inhibitory concentration (standard microdilution method); assay type: cell-based; details: Mueller-Hinton broth, 24-hour; for MIC: 24 h, read-out: Microdilution Broth MIC
[2] = system: Escherichia coli; assay: as above; assay type: cell-based; details: Escherichia coli, Mueller-Hinton broth, 24-hour; for MIC: read-out: Microdilution Broth MIC
[3] = system: Escherichia coli; assay: In vivo efficacy of orally administered compounds in mouse intraperitoneal infections; details: mouse i.p. Escherichia coli infection, oral, dosed at infection and 4 h post-infection, 7 days; for ED50: 168 h, read-out: ED50 (50 percent effective dose)
[4] = system: Staphylococcus aureus; assay: as above; details: mouse i.p. Staphylococcus aureus infection, oral, dosed at infection and 4 h post-infection, 7 days; for ED50: Staphylococcus aureus, po, 168 h, read-out: ED50 (50 percent effective dose)
[5] = system: Staphylococcus aureus; assay: In vivo efficacy of compounds administered subcutaneously in mouse intraperitoneal infections; details: sc, 168 h; mouse i.p. Staphylococcus aureus infection; subcutaneous; dosed at infection and 4 h post-infection; 7 days; read-out: ED50 (50 percent effective dose)
[6] = system: Escherichia coli; assay: as above; details: sc, 168 h; mouse i.p. Escherichia coli infection; subcutaneous; dosed at infection and 4 h post-infection; 7 days; read-out: ED50 (50 percent effective dose)

Structure (SMILES) | MIC [1] [µg/mL] | MIC [2] [µg/mL] | ED50 [3] [mg/kg] | ED50 [4] [mg/kg] | ED50 [5] [mg/kg] | ED50 [6] [mg/kg] | Microdilution Broth MIC [1] [µg/mL] | Microdilution Broth MIC [2] [µg/mL] | ED50 (50 percent effective dose) [3] [mg/kg] | ED50 (50 percent effective dose) ([4]; 10080 min) [mg/kg]
[N-]=[N+]=NCC1CN(c2ccc(S(N)(=O)=O)cc2)C(=O)O1 (single isomer, unassigned) [Example 3, (l)-4-[5-(Azidomethyl)-2-oxooxazolidin-3-yl]benzenesulfonamide] | 25 (≈ 84.1 µM) | > 100 | > 120 | 29.3 | – | – | – | – | – | –
CS(=O)(=O)c1ccc(N2CC(CN)OC2=O)cc1 (single isomer, unassigned) [Example 11, (l)-5-Aminomethyl-3-[4-(methylsulfonyl)phenyl]-2-oxazolidinone] | > 100 | > 100 | 47.4 | 29.9 | 16.4 | – | – | – | – | –
CS(=O)(=O)c1ccc(N2CC(CNC=O)OC2=O)cc1 (single isomer, unassigned) [Example 21, (l)-N-[3-[4-(Methylsulfonyl)phenyl]-2-oxooxazolidin-5-ylmethyl]formamide] | 6.3 (≈ 21.1 µM) | 100 (≈ 335 µM) | 30.3 | 7.3 | – | – | – | – | – | –
CC(=O)NCC1CN(c2ccc(S(C)(=O)=O)cc2)C(=O)O1 (single isomer, unassigned) [Example 23, (l)-N-[3-[4-(Methylsulfonyl)phenyl]-2-oxooxazolidin-5-ylmethyl]acetamide] | 3.2 (≈ 10.2 µM) | 25 (≈ 80 µM) | 14 | 3.3 | – | – | – | – | – | –
CS(=O)(=O)NCC1CN(c2ccc(S(C)(=O)=O)cc2)C(=O)O1 (single isomer, unassigned) [Example 25, (l)-N-[3-[4-(Methylsulfonyl)phenyl]-2-oxooxazolidin-5-ylmethyl]methanesulfonamide] | 100 (≈ 287 µM) | > 100 | – | > 360 | 83.6 | > 100 | – | – | – | –
CSc1ccc(N2CC(CNC(C)=O)OC2=O)cc1 (single isomer, unassigned) [Example 31, (l)-N-[3-[4-(methylthio)phenyl]-2-oxooxazolidin-5-ylmethyl]acetamide] | 3.9 (≈ 13.9 µM) | > 200 | 19.6 | 3.5 | < 4.4 | – | – | – | – | –
COC(=O)NCC1CN(c2ccc(SC)cc2)C(=O)O1 (single isomer, unassigned) [Example 32, (l)-N-[3-[4-(methylthio)phenyl]-2-oxooxazolidin-5-ylmethyl]carbamic acid, methyl ester] | 12.5 (≈ 42.2 µM) | > 200 | 70.9 | 3.5 | < 4.4 | – | – | – | – | –
CC(=O)NCC1CN(c2ccc(C(C)C)cc2)C(=O)O1 (single isomer, unassigned) [Example 51, (l)-N-[3-(4-isopropylphenyl)-2-oxooxazolidin-5-ylmethyl]acetamide] | 3.1 (≈ 11.2 µM) | > 200 | 62.9 | 6.4 | – | – | – | – | – | –
COC(=O)NCC1CN(c2ccc([S+](C)[O-])cc2)C(=O)O1 (single isomer, unassigned) [Example 121, (l)-N-[3-[4-(Methylsulfinyl)phenyl]-2-oxooxazolidin-5-ylmethyl]carbamic acid, methyl ester] | 18.8 (≈ 60.2 µM) | > 200 | 55.9 | 2.5 | – | – | – | – | – | –
CC(=O)NCC1CN(c2ccc(I)cc2)C(=O)O1 (single isomer, unassigned) [Example 145, (l)-N-[3-(4-Iodophenyl)-2-oxo-5-oxazolidinylmethyl]acetamide] | 12.5 (≈ 34.7 µM) | > 200 | – | 50 | 12.2 | > 120 | – | – | – | –
CC(=O)NCC1CN(c2ccccc2[N+](=O)[O-])C(=O)O1 (single isomer, unassigned) [Example 148, (l)-N-[3-(2-Nitrophenyl)-2-oxooxazolidin-5-ylmethyl]acetamide] | 200 (≈ 716 µM) | > 200 | > 120 | 21 | 21.5 | – | – | – | – | –
CC(=O)NCC1CN(c2ccc(N)cc2)C(=O)O1 (single isomer, unassigned) [Example 149, (l)-N-[3-(4-Aminophenyl)-2-oxooxazolidin-5-ylmethyl]acetamide] | 100 (≈ 401 µM) | > 200 | > 120 | 20.2 | 10.3 | – | – | – | – | –
CC(=O)NCC1CN(c2ccc(SC(C)=O)cc2)C(=O)O1 (single isomer, unassigned) [Example 152, (l)-N-[3-[4-(Acetylthio)phenyl]-2-oxooxazolidin-5-ylmethyl]acetamide] | > 200 | > 200 | 24.8 | 4.4 | < 2.5 | – | – | – | – | –
COC(=O)NCC1CN(c2ccc(SC(C)=O)cc2)C(=O)O1 (single isomer, unassigned) [Example 155] | > 200 | > 200 | 82.2 | 3 | < 4.4 | – | – | – | – | –
COC(=O)NCC1CN(c2ccc(S)cc2)C(=O)O1 (single isomer, unassigned) [Example 156, (l)-[3-(4-Mercaptophenyl)-2-oxooxazolidin-5-ylmethyl]carbamic acid, methyl ester] | > 200 | > 200 | > 120 | 4.5 | < 4.4 | – | – | – | – | –
CC(=O)NCC1CN(c2ccc(C(C)=NO)cc2)C(=O)O1 (single isomer, unassigned) [Example 159, (l)-N-[3-(4-Acetylphenyl)-2-oxooxazolidin-5-ylmethyl]acetamide Oxime] | 4 (≈ 13.7 µM) | > 128 | – | 2.6 | 1.1 | 71.9 | – | – | – | –
CCC(=O)NCC1CN(c2ccc(S(C)(=O)=O)cc2)C(=O)O1 (centres unmarked) [Example 27] | 6.3 (≈ 19.3 µM) | 50 (≈ 153 µM) | 37 | 8 | – | – | – | – | – | –
CCOC(=O)NCC1CN(c2ccc(SC)cc2)C(=O)O1 (centres unmarked) [Example 33] | 50 (≈ 161 µM) | > 200 | > 120 | 12.2 | 8.6 | – | – | – | – | –
CC(=O)NCC1CN(c2ccc(C(F)(F)F)cc2)C(=O)O1 (centres unmarked) [Example 41] | 12.5 (≈ 41.4 µM) | > 200 | > 120 | 5.3 | 6.1 | – | – | – | – | –
COC(=O)NCC1CN(c2ccc(C(C)C)cc2)C(=O)O1 (centres unmarked) [Example 52] | – | – | – | – | – | – | 6.3 | > 200.0 | > 120.0 | 4.9
CC(=O)NCC1CN(c2ccc(C#N)cc2)C(=O)O1 (centres unmarked) [Example 59] | 100 (≈ 386 µM) | > 200 | 88 | 4.3 | – | – | – | – | – | –
CC(=O)NCC1CN(c2ccc3c(c2)OCO3)C(=O)O1 (centres unmarked) [Example 62] | 50 (≈ 180 µM) | > 200 | > 120 | 19.1 | – | – | – | – | – | –
C=CC(=O)NCC1CN(c2ccc(S(C)(=O)=O)cc2)C(=O)O1 (centres unmarked) [Example 69] | 9.4 (≈ 29 µM) | 150 (≈ 462 µM) | 65.7 | 11.9 | – | – | – | – | – | –
COC(=O)NCC1CN(c2ccc(Cl)cc2)C(=O)O1 (centres unmarked) [Example 84] | > 128 | > 128 | > 120 | 79.2 | 80.5 | – | – | – | – | –
CSc1ccc(N2CC(CNC=O)OC2=O)cc1 (centres unmarked) [Example 89] | 25 (≈ 93.9 µM) | > 200 | > 138 | 11 | – | – | – | – | – | –
C[S+]([O-])c1ccc(N2CC(CNC=O)OC2=O)cc1 (centres unmarked) [Example 90] | 25 (≈ 88.6 µM) | > 200 | 98.4 | 11.3 | – | – | – | – | – | –
C=CC(=O)NCC1CN(c2ccc(C(C)=O)cc2)C(=O)O1 (centres unmarked) [Example 96] | 12.5 (≈ 43.4 µM) | > 50 | 83.2 | 7.9 | – | – | – | – | – | –
